Test results taken from paper PMC2680345 (Journal of Antimicrobial Chemotherapy, 2009).
Read-outs that look alike come from different tables or passages of the source.

Key:
[1] = for θ2 (factor associated with the covariate) / θ1 (typical value of V/F) / θ1 (typical value of ka): univariate model
[2] = cited from earlier work
[3] = clinical; conditions: both, human, in vivo
[4] = Plasma concentrations; format: in vivo; conditions: human, oral, ritonavir AUC0–24, median, external dataset, 18 HIV-infected patients, atazanavir/ritonavir/saquinavir 200/100/1600 mg once daily
[5] = final model, 300/100 mg once daily
[6] = influence of Black-African ethnicity on V/F: V = θ1 * θ2^AFR
[7] = influence of Black-African ethnicity on ka: ka = θ1 * θ2^AFR
[8] = influence of HIV status on V/F: V = θ1 * θ2^HIV
[9] = influence of HIV status on ka: ka = θ1 * θ2^HIV
[10] = influence of Hispanic ethnicity on ka: ka = θ1 * θ2^HSP
[11] = influence of RTV AUC0–24 on V/F: V = θ1 * (RTV/7.52)^θ2
[12] = influence of SQV on V/F: V = θ1 * θ2^SQV
[13] = influence of TDF on V/F: V = θ1 * θ2^TDF
[14] = influence of TDF on ka: ka = θ1 * θ2^TDF
[15] = influence of sex on V/F: V = θ1 * θ2^SEX
[16] = influence of weight on V/F: V = θ1 + θ2 * (WT − 76.2)

## COC(=O)N[C@H](C(=O)N[C@@H](Cc1ccccc1)[C@@H](O)CN(Cc1ccc(-c2ccccn2)cc1)NC(=O)[C@@H](NC(=O)OC)C(C)(C)C)C(C)(C)C [atazanavir, Atazanavir]
[1]; basic model
  IIV CL/F (inter-individual variability): 48%
  IIV V/F (inter-individual variability): 48%
  IIV ka (inter-individual variability): 154%
[1]; basic model (no covariates), 300/100 mg once daily
  CL/F (apparent oral clearance): 7.6 L/h
[1]; females
  mean individual predicted CL/F: 6.40 L/h
[1]; [5]
  IIV CL/F (inter-individual variability): 29%
  IIV V/F (inter-individual variability): 48%
  IIV ka (inter-individual variability): 154%
[1]; final versus basic model
  reduction of variability of CL/F by inclusion of ritonavir AUC0–24 as covariate: 19%
[1]; males
  mean individual predicted CL/F: 8.99 L/h
[1]; not significant
  lower mean individual predicted CL/F in females compared with males: ~29%
[1]; influence of Black-African ethnicity on CL/F: CL = θ1 * θ2^AFR
  θ2 (factor associated with the covariate): 0.91
[1]; [6]
  θ1 (typical value of V/F): 100
  θ2 (factor associated with the covariate): 1.23
[1]; [7]
  θ1 (typical value of ka): 3.28
  θ2 (factor associated with the covariate): 1.44
[1]; influence of HIV status on CL/F: CL = θ1 * θ2^HIV
  θ2 (factor associated with the covariate): 0.80
[1]; [8]
  θ1 (typical value of V/F): 118
  θ2 (factor associated with the covariate): 0.81
[1]; [9]
  θ1 (typical value of ka): 2.77
  θ2 (factor associated with the covariate): 1.42
[1]; influence of Hispanic ethnicity on CL/F: CL = θ1 * θ2^HSP
  θ2 (factor associated with the covariate): 1.60
[1]; [10]
  θ1 (typical value of ka): 2.81
  θ2 (factor associated with the covariate): 4.42
[1]; influence of RTV AUC0–24 on CL/F: CL = θ1 * (RTV/7.52)^θ2
  θ2 (factor associated with the covariate): −0.84
[1]; [11]
  θ1 (typical value of V/F): 104
  θ2 (factor associated with the covariate): −0.50
[1]; influence of SQV (1600 mg once daily) on CL/F: CL = θ1 * θ2^SQV
  θ2 (factor associated with the covariate): 0.67
[1]; [12]
  θ1 (typical value of V/F): 123
  θ2 (factor associated with the covariate): 0.64
[1]; influence of TDF (300 mg once daily) on CL/F: CL = θ1 * θ2^TDF
  θ2 (factor associated with the covariate): 0.83
[1]; [13]
  θ1 (typical value of V/F): 108
  θ2 (factor associated with the covariate): 0.71
[1]; [14]
  θ1 (typical value of ka): 3.43
  θ2 (factor associated with the covariate): 1.10
[1]; influence of sex on CL/F: CL = θ1 * θ2^SEX
  θ2 (factor associated with the covariate): 0.77
[1]; [15]
  θ1 (typical value of V/F): 98.7
  θ2 (factor associated with the covariate): 1.26
[1]; influence of weight on CL/F: CL = θ1 + θ2 * (WT − 76.2)
  θ2 (factor associated with the covariate): 0.13
[1]; [16]
  θ1 (typical value of V/F): 105
  θ2 (factor associated with the covariate): 1.26
[2]
  AUC0–24 lower in HIV patients compared with healthy individuals: ~20%
  minimum concentrations lower in HIV patients compared with healthy individuals: ~50%
  peak concentrations lower in HIV patients compared with healthy individuals: ~30%
[2]; population analysis by Colombo et al.
  half-life: 8.8 h
[3]
  Vd/F: 103 L

## CC(C)c1nc(CN(C)C(=O)N[C@H](C(=O)N[C@@H](Cc2ccccc2)C[C@H](O)[C@H](Cc2ccccc2)NC(=O)OCc2cncs2)C(C)C)cs1 [ritonavir]
[4]
  AUC(0-t): 9060 ng·h/mL
